We go through one molecule from patent US7122554B2, “Carboline derivatives” (Lilly Icos LLC., priority 2001, dated 2006).

The term melting point denotes the temperature of the solid-liquid transition. For orientation: IC50 means the concentration that inhibits the measured activity by half.

For one data set, the target named is human recombinant PDE5 (Homo sapiens, UniProt O76074). The experiment in a line: Inhibitory effect on cGMP-PDE (PDE5 IC50, one-step assay). It counts as biochemical. The conditions noted are these: human recombinant PDE5, 0.15 μM 8-[H3]-cGMP, 30 minutes incubation. On the procedure: The compounds of structural formula (I) were tested for an ability to inhibit PDE5. The ability of a compound to inhibit PDE5 activity is related to the IC50 value for the compound, i.e., the concentration of inhibitor required for 50% inhibition of enzyme activity. The IC50 value for compounds of structural formula (I) were determined using recombinant human PDE5.
cGMP-PDE activity of compounds of the present invention was measured using a one-step assay adapted from Wells et al., Biochim. Biophys. Acta, 384, 430 (1975). The reaction medium contained 50 mM Tris-HCl, pH 7.5, 5 mM magnesium acetate, 250 μg/ml 5′-Nucleotidase, 1 mM EGTA, and 0.15 μM 8-[H^3]-cGMP. Unless otherwise indicated, the enzyme used was a human recombinant PDE5 (ICOS Corp., Bothell, Wash.).
Compounds of the invention were dissolved in DMSO finally present at 2% in the assay.

Consider `O=S(=O)(/C=C/c1ccccc1)N1CCc2c([nH]c3ccccc23)[C@H]1c1ccc2c(c1)OCO2` [Example 41b, (1R)-1-benzo[1,3]dioxol-5-yl-2-(2-phenylethenesulfonyl)-2,3,4,9-tetrahydro-1H-β-carboline], for which the melting point lay in the range of 193 to 194 °C. In addition, on human recombinant PDE5, the IC50 was found to be 413 nM.
